From ChEMBL document CHEMBL1157031, “A novel copper complex of salicylaldehyde pyrazole hydrazone induces apoptosis through up-regulating integrin beta4 in H322 lung carcinoma cells” (Eur J Med Chem, 2010)
The source made the active and inactive calls. The calls are words filed in the database; no cut-off is given here.

Tests used:
[1] = Cytotoxicity against human NCI-H322 cells after 48 hrs by MTT assay; assay type: functional, cell-based; conditions: NCI-H322, 48 h
NCI-H1299 = assay: Cytotoxicity against human NCI-H1299 cells after 48 hrs by MTT assay; assay type: functional, cell-based; conditions: NCI-H1299, 48 h
HUVEC = assay: Cytotoxicity against HUVEC cells after 48 hrs by MTT assay; assay type: cell-based; conditions: Homo sapiens
NCI-H322 = assay: Induction of apoptosis in human NCI-H322 cells at 10 uM by Hoechst 33258 staining in presence of CuCl2; assay type: functional, cell-based

CC(C)(C)c1ccc(Cn2nc(-c3ccccc3)cc2C(=O)N/N=C/c2ccccc2O)cc1 gave an IC50 [1] of 4.75 µM, an IC50 (NCI-H1299) of 5.78 µM and an IC50 (HUVEC) of 2.23 µM. The Activity (NCI-H322) was “Active”.
